Measurements from US6527690B2, “Purification of phenyl ester salts” (priority 2000, dated 2003).

Experiments:
[1] = Measurement of perhydrolysis rate of formulated beads; conditions: 5 minutes, 10° C.
Procedure: To determine its perhydrolysis rate, the phenyl ester salt was formulated into beads. The beads were typically formulated using a powder or solid phenyl ester salt with a surfactant and a chelating agent. A typical formulation is shown below: […]
The dry materials were weighed, charged into a one-gallon sigma blade mixer and dry mixed for 1 minute. While mixing, water was added and mixing was continued for about 17.5 minutes. The wet mix bulk density was determined by measuring weight/volume. The material was extruded using the Luwa DG-L I at 90 rpm (using a 0.7 mm/I mm, 19.7% open area die). The extrusion was rounded for 1 minute at 1,350 rpm in the Luwa QJ-230 Marumerizer, followed by drying for 20 minutes at 115° C. in a Luwa MDB-400 fluid bed.
Perhydrolysis rate is the percentage of a phenyl ester salt that has undergone perhydrolysis in a specified period of time and at a specific temperature. For the purposes of these examples, perhydrolysis rate is measured at 5 and 30 minutes intervals at 10° C.
The perhydrolysis rate of a phenyl ester salt is measured by adding a weighed quantity of formulated beads comprising the phenyl ester salt, a reference detergent, and sodium […] monohydrate to a synthetic hard water solution in a chilled dissolution vessel (Sotax Model AT7, modified with a emersion chiller). The solution is maintained at 10° C. and stirred at 150 rpm. […]

[2] = Hydrolysis of phenyl ester salt in water at elevated temperature (water crystallization); type: physicochemical
Description: Phenyl ester salts may also be recrystallized from aqueous solutions. At first glance, the use of water (or an alcohol) as a solvent to replace acetic acid typically used for the purification of crude phenyl ester salts is not an obvious choice. Japanese Patent No. 6-306,042 (1995), for example, reports that compounds related to phenyl ester salts in water or alcohol are subject to hydrolysis or solvolysis at elevated temperatures. Indeed, initial work on water crystallization confirmed that phenyl ester salts, such as Compound (1), did undergo hydrolysis at elevated temperatures. Typical losses of Compound (1) were in the range of 5-7.5% at 90° C.

Hydrolysis ([2]; 90° C., operating at a pH range of 4-6): about 2.2%
Typical losses by hydrolysis ([2]; water crystallization at 90° C., pH not controlled): 5-7.5%
Substance: sodium nonanamidohexanoyloxybenzenesulfonate [Compound (1)]
Five minute perhydrolysis rate ([1]; beads prepared from crystallized Compound (1)): 20%
Five minute perhydrolysis rate ([1]; beads prepared from spray-dried Compound (1)): 100%
